The values that follow come from ChEMBL document CHEMBL1155821, “Discovery of (-)-7-methyl-2-exo-[3'-(6-[18F]fluoropyridin-2-yl)-5'-pyridinyl]-7-azabicyclo[2.2.1]heptane, a radiolabeled antagonist for cerebral nicotinic acetylcholine receptor (alpha4beta2-nAChR) with optimal positron emission tomography imaging properties” (J Med Chem, 2008).

The structures appear in SMILES notation. pKd, pKi: −log10 of the molar value.

One may read the pKi as the Ki on a negative log10 scale, so that one unit is a factor of ten. What is called half-life is the time needed for the level to fall by half in the phase considered. By logD is commonly meant the decadic logarithm of the distribution of all forms, ionised or not, between an organic phase and buffer at a given pH. What is called pKd is the negative decadic logarithm of the Kd, by convention in mol/L.

Data set [1] addresses Neuronal acetylcholine receptor; alpha2/beta4 (Rattus norvegicus, UniProt P12389+P12392). Briefly: Displacement of [3H]epibatidine from rat alpha2beta4 nAChR expressed in HEK293 cells. It counts as cell-based. A general note: Displacement assays read how much labelled ligand stays bound in the presence of the test substance.
For data set [2], the target named is Neuronal acetylcholine receptor; alpha3/beta4 (Rattus norvegicus, UniProt P04757+P12392). Nature of the data set: Displacement of [3H]epibatidine from rat alpha3beta4 nAChR expressed in HEK293 cells. The data set is classed as cell-based.
Chain of Neuronal acetylcholine receptor; alpha3/beta4 (P04757 whole entry): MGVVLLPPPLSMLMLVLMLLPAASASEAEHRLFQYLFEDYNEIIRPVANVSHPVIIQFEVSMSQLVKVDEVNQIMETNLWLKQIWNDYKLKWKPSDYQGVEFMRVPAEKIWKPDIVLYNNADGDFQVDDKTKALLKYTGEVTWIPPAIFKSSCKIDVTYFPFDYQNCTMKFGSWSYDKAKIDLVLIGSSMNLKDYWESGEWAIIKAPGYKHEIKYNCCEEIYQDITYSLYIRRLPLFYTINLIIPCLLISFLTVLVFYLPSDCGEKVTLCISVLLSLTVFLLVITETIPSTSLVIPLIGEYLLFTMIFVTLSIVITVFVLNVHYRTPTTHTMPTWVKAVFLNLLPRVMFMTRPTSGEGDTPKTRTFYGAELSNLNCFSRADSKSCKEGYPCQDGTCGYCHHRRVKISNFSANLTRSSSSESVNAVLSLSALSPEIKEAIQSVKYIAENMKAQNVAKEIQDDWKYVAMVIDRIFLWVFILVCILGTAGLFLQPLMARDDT
Chain of Neuronal acetylcholine receptor; alpha3/beta4 (P12392 whole entry): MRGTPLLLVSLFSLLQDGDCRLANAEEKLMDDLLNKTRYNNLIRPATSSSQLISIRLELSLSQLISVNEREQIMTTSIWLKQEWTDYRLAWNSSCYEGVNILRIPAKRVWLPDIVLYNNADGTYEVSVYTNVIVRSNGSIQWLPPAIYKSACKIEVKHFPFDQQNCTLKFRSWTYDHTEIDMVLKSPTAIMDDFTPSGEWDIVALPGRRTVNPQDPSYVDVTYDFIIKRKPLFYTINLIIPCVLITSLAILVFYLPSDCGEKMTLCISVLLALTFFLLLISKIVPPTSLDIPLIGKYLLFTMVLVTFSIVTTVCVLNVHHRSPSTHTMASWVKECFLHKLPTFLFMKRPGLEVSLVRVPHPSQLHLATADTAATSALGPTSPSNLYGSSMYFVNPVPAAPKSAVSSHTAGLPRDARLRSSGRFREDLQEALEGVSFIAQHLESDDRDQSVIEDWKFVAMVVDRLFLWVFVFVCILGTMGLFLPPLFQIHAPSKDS
Data set [3] relates to Mus musculus. Nature of the data set: Toxicity in CD1 mouse assessed as straub tail response at 1.7 umol/kg, iv. The data set is classed as organism-based. The conditions noted are these: in vivo.
For data set [4], the system named is Mus musculus. Briefly: Toxicity in CD1 mouse assessed as straub tail response at 0.8 umol/kg, iv. The note with it: in vivo. It counts as organism-based.
Data set [5] in a line: Half life in rhesus monkey thalamus. It counts as ADME, organism-based, Macaca mulatta.
The subject of data set [6] is Mus musculus. Nature of the data set: Toxicity in CD1 mouse assessed as circling behavior at 1.7 umol/kg, iv. The data set is classed as organism-based. The conditions noted are these: in vivo.
Data set [7] deals with Neuronal acetylcholine receptor; alpha3/beta2 (Rattus norvegicus, UniProt P04757+P12390). Briefly: Displacement of [3H]epibatidine from rat alpha3beta2 nAChR expressed in HEK293 cells. It counts as cell-based.
Chain of Neuronal acetylcholine receptor; alpha3/beta2 (P04757 whole entry): as the sequence (P04757 whole entry) above
Chain of Neuronal acetylcholine receptor; alpha3/beta2 (P12390 whole entry): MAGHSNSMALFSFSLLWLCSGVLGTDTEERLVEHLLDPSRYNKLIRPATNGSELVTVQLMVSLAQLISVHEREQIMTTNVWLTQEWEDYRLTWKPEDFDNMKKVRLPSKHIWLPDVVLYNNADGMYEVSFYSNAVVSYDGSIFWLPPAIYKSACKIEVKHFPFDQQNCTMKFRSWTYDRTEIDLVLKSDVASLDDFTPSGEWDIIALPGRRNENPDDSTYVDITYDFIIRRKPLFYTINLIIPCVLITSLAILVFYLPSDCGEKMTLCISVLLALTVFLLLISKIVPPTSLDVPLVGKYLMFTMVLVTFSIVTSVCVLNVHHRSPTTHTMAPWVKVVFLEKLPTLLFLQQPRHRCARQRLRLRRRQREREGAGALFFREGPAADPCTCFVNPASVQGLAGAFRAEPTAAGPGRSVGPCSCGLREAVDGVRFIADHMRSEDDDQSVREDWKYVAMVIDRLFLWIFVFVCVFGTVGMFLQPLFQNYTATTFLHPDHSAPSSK
Data set [8] deals with Mus musculus. Briefly: Toxicity in CD1 mouse assessed as seizures at 6.7 umol/kg, iv. It counts as organism-based. The note with it: in vivo.
The test system of data set [9] is Mus musculus. Briefly: Toxicity in CD1 mouse assessed as straub tail response at 6.7 umol/kg, iv. The data set is classed as organism-based. The note with it: in vivo.
The subject of data set [10] is Mus musculus. Nature of the data set: Toxicity in CD1 mouse assessed as circling behavior at 0.8 umol/kg, iv. The data set is classed as organism-based. The conditions noted are these: in vivo.
The target in data set [11] is Neuronal acetylcholine receptor subunit alpha-2 (Rattus norvegicus, UniProt P12389+P12390). Nature of the data set: Displacement of [3H]epibatidine from rat alpha2beta2 nAChR expressed in HEK293 cells. It counts as cell-based.
Chain of Neuronal acetylcholine receptor subunit alpha-2 (P12389 whole entry, one chain of several): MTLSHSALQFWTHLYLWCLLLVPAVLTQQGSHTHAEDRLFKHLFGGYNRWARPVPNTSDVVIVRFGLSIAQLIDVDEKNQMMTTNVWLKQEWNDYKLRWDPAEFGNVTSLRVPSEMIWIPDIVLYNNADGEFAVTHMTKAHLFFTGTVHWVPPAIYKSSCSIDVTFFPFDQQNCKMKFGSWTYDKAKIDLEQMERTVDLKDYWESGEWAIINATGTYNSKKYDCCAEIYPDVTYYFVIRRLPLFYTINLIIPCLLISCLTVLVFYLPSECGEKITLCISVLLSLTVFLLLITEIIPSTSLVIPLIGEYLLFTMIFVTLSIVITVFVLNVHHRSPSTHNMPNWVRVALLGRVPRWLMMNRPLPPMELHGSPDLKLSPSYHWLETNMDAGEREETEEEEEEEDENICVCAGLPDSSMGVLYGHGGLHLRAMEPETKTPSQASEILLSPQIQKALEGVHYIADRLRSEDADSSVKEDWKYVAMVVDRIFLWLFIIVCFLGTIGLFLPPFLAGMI
Data set [12] concerns Mus musculus. Nature of the data set: Toxicity in CD1 mouse assessed as straub tail response at 3.3 umol/kg, iv. It counts as organism-based. The note with it: in vivo.
Data set [13] relates to Mus musculus. Nature of the data set: Toxicity in CD1 mouse assessed as hyperactivity at 3.3 umol/kg, iv. It counts as organism-based. The note with it: in vivo.
Data set [14] addresses Neuronal acetylcholine receptor; alpha4/beta2 (Rattus norvegicus, UniProt P09483+P12390). Briefly: Displacement of [3H]epibatidine from rat alpha4beta2 nAChR expressed in HEK293 cells. It counts as cell-based.
The nature of data set [15]: Displacement of [3H]epibatidine from nAChR in rat cerebral cortex membrane. It counts as cell membranes.
The target of data set [16] is Neuronal acetylcholine receptor; alpha4/beta4 (Rattus norvegicus, UniProt P09483+P12392). Briefly: Displacement of [3H]epibatidine from rat alpha4beta4 nAChR expressed in HEK293 cells. The data set is classed as cell-based.
Chain of Neuronal acetylcholine receptor; alpha4/beta4 (P09483 whole entry): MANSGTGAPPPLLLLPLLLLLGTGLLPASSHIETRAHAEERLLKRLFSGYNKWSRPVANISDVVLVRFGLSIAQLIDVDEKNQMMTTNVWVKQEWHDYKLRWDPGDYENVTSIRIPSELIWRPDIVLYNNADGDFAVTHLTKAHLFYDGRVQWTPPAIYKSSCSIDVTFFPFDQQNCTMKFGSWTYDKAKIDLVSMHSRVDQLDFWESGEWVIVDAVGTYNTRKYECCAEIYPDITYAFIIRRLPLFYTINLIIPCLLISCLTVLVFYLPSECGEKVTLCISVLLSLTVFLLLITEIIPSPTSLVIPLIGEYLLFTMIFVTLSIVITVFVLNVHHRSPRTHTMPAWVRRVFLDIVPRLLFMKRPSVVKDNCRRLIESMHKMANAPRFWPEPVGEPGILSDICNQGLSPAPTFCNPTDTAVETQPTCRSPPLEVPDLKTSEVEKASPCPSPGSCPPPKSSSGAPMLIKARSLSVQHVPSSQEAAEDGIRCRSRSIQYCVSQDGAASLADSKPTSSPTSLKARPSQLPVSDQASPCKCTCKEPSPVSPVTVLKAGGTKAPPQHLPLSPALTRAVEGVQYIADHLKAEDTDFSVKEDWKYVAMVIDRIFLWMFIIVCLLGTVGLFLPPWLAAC
Chain of Neuronal acetylcholine receptor; alpha4/beta4 (P12392 whole entry): as the sequence (P12392 whole entry) above
Data set [17] has as its target Neuronal acetylcholine receptor subunit alpha-6 (Rattus norvegicus, UniProt P12390+P43143). Briefly: Displacement of [3H]epibatidine from rat alpha6beta2 nAChR expressed in HEK293 cells. It counts as cell-based.
Data set [18] in a line: Lipophilicity, log D at pH 7.4. The data set is classed as physicochemical. The note with it: buffer.
The subject of data set [19] is Mus musculus. Nature of the data set: Toxicity in CD1 mouse assessed as mortality at 2.0 umol/kg, iv. The data set is classed as organism-based. The conditions noted are these: in vivo.
Data set [20] relates to Mus musculus. Nature of the data set: Toxicity in CD1 mouse assessed as seizures at 1.3 umol/kg, iv. The conditions noted are these: in vivo. The data set is classed as organism-based.
For data set [21], the system named is Mus musculus. Briefly: Toxicity in CD1 mouse assessed as straub tail response at 1.3 umol/kg, iv. It counts as organism-based. The note with it: in vivo.
Data set [22] can be described thus: Half life in iv dosed baboon thalamus. It counts as ADME, organism-based. The conditions noted are these: papio anubis.
Data set [23] addresses T1, Neuronal acetylcholine receptor; alpha4/beta2 (Homo sapiens, UniProt P17787+P43681). Briefly: Antagonist activity at human alpha4beta2 nAChR expressed in human SHEP1 cells assessed as reduction in peak amplitude at 1 uM by whole cell patch clamp technique in presence of acetylcholine. It counts as functional, cell-based. Details: scale not given: the % may be the effect or the level left. For orientation: Patch clamp records ionic current or voltage across a cell membrane.

A short description of data set [24]: Metabolic stability in CD1 mouse brain at 1.5 MBq, iv after 30 mins. The data set is classed as ADME, organism-based. The conditions noted are these: read-out: Stability.
The nature of data set [25]: Metabolic stability in iv dosed baboon blood after 60 mins. The data set is classed as ADME, organism-based. The conditions noted are these: papio anubis, read-out: Stability.
Data set [26] can be described thus: Metabolic stability in CD1 mouse blood at 1.5 MBq, iv after 30 mins. It counts as ADME, organism-based. The conditions noted are these: read-out: Stability.
Data set [27] relates to Mus musculus. Nature of the data set: Toxicity in CD1 mouse assessed as reduced locomotor activity at 2.0 umol/kg, iv. The data set is classed as organism-based. The note with it: in vivo.
Data set [28] addresses T1, Neuronal acetylcholine receptor; alpha4/beta2. Nature of the data set: Binding affinity to human alpha4beta2 nAChR expressed in human SHEP1 cells. The data set is classed as cell-based.
The subject of data set [29] is Mus musculus. Nature of the data set: Toxicity in CD1 mouse at 0.002 umol/kg, iv. It counts as organism-based. The note with it: in vivo.
Data set [30] deals with Mus musculus. Briefly: Toxicity in CD1 mouse at 0.05 umol/kg, iv. The data set is classed as organism-based. The conditions noted are these: in vivo.
Data set [31] has as its system Mus musculus. Briefly: Toxicity in CD1 mouse at 0.2 umol/kg, iv. The data set is classed as organism-based. The note with it: in vivo.

Chain of Neuronal acetylcholine receptor; alpha2/beta4 (P12389 whole entry): as the sequence (P12389 whole entry, one chain of several) above
Chain of Neuronal acetylcholine receptor; alpha2/beta4 (P12392 whole entry): as the sequence (P12392 whole entry) above
Chain of Neuronal acetylcholine receptor subunit alpha-6 (P43143 whole entry, one chain of several): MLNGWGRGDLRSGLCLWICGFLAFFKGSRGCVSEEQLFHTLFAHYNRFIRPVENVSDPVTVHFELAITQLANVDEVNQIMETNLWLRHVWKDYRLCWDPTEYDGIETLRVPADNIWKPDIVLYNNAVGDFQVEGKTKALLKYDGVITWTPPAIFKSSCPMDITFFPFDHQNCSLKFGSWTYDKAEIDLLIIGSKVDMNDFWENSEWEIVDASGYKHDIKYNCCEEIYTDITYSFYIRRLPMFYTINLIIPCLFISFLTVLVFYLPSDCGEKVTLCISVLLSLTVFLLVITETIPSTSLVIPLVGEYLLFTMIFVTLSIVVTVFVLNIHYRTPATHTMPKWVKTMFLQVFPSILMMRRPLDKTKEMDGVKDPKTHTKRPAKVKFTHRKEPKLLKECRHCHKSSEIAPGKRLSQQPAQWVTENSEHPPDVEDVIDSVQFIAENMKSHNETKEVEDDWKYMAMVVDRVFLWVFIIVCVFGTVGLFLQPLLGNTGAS
Chain of Neuronal acetylcholine receptor; alpha4/beta2 (Rattus norvegicus, UniProt P09483+P12390) (P09483 whole entry): as the sequence (P09483 whole entry) above
Chain of Neuronal acetylcholine receptor; alpha4/beta2 (Rattus norvegicus, UniProt P09483+P12390) (P12390 whole entry): as the sequence (P12390 whole entry) above
T1 sequence (P17787 whole entry): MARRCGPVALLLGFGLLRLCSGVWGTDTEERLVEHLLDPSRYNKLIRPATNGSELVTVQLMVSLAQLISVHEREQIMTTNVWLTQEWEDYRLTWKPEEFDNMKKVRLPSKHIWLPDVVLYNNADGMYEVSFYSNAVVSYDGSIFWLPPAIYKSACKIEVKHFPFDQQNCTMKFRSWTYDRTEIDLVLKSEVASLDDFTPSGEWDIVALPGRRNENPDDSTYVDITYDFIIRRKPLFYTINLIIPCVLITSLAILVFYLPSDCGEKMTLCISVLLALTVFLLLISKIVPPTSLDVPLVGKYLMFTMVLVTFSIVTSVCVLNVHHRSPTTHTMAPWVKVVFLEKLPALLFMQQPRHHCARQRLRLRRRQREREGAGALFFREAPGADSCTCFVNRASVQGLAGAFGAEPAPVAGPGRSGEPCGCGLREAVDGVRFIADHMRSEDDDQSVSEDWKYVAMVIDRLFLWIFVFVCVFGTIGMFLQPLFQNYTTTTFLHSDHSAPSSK
T1 sequence (P43681 whole entry): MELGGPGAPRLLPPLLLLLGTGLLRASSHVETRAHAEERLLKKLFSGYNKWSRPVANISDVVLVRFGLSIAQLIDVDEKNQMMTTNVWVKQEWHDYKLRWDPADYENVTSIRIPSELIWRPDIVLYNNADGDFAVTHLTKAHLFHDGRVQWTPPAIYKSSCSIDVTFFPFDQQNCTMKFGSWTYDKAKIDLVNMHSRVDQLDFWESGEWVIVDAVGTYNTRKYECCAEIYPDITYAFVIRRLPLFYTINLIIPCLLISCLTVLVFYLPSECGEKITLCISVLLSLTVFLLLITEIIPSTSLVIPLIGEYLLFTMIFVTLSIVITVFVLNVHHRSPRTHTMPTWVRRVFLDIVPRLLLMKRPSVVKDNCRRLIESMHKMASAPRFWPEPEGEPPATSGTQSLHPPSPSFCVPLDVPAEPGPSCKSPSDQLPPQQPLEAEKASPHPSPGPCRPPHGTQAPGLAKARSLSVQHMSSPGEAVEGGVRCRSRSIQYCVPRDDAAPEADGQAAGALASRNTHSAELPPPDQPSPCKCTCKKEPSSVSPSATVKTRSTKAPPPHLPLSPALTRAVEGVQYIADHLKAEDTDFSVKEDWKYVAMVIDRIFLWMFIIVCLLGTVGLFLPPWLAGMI

As for `[18F]c1ncccc1OC[C@@H]1CCN1`, the pKi in [1] was 6.74; in data set [2], 5.43; in data set [7], 8.52; in data set [11], 8.84. The Activity entry in data set [3], in data set [4], in data set [6], in data set [8], in [9] and in data set [10] was “Toxic” throughout. The Activity result in data set [12] and in data set [13] was “Toxic” each time. The compound also registered a half-life in data set [5] of 4.5 h.
As to `CN1[C@@H]2CC[C@@H]1[C@@H](c1cncc(-c3ccnc(F)c3)c1)C2` (stereo in doubt; (-)-6a), the negative logarithm of the Ki (pKi) in data set [14] is 10.72; in data set [1], 9.08; in data set [15], 9.96; in data set [2], 7.41; in [16], 9.24; in data set [7], 9.89. Further, the results for the pKi in data set [17] and in data set [11] were 10.51 and 10.82, respectively.
Regarding `CN1C2CCC1C(c1cncc(-c3ccc([18F])nc3)c1)C2` (single isomer, unassigned; (+)), the negative-log Ki (pKi) in data set [15] is 8.68.
On to `CN1[C@@H]2CC[C@@H]1[C@@H](c1cncc(-c3ccnc(F)c3)c1)C2` (racemic), for which the log distribution coefficient (logD) in data set [18] was determined as 0.74.
Take `CN1[C@@H]2CC[C@@H]1[C@@H](c1cncc(-c3cccnc3F)c1)C2` (stereo in doubt; (+)-6b): in data set [15], the pKi was 8.13.
As to `[18F]c1ccc(OC[C@@H]2CCN2)cn1`, the Activity result in [19], in data set [20] and in data set [21] was “Toxic” each time.
For `CN1[C@@H]2CC[C@@H]1[C@@H](c1cncc(-c3cccc(F)n3)c1)C2` (stereo in doubt; (+)-6c), in [15], the pKi is 8.33.
In data set [15], `CN1[C@@H]2CC[C@@H]1[C@@H](c1cncc(-c3ccnc(F)c3)c1)C2` (stereo in doubt; (+)-6a) showed a pKi of 8.89.
Regarding `CN1[C@@H]2CC[C@@H]1[C@@H](c1cncc(-c3cccnc3F)c1)C2` (racemic), the negative-log Ki (pKi) in data set [15] was 9.80. Moreover, the logD in data set [18] came out at 0.67.
Regarding `CN1C2CCC1C(c1cncc(-c3ccc(F)nc3)c1)C2` (single isomer, unassigned; (-)), the pKi in data set [14] was 10.96; in [1], 9.29; in [15], 10.30; in data set [2], 7.52; in data set [16], 9.51; in data set [7], 10.03. Further, the pKi in [17] is 10.33; in data set [11], 11.05. The compound further showed a pH-dependent lipophilicity (logD) in data set [18] of 0.46.
As to `CN1[C@@H]2CC[C@@H]1[C@@H](c1cncc(-c3cccnc3F)c1)C2` (stereo in doubt; (-)-6b), the pKi in data set [14] is 10.24; in data set [1] it was 9.18; in data set [15], 10.30; in data set [2], 7.39; in [16] it was 9.15; in data set [7], 9.17. In addition, the pKi in data set [17] was 10.68; in data set [11], 10.47.
On to `CN1[C@@H]2CC[C@@H]1[C@@H](c1cncc(-c3cccnc3[18F])c1)C2`, for which the half-life in [22] was 3.5 h.
Regarding `CN1[C@@H]2CC[C@@H]1[C@@H](c1cncc(-c3cccc(F)n3)c1)C2` (stereo in doubt; (-)-6c) [listing 1 of 2 here], the Activity in data set [23] is 14%.
In the case of `CN1[C@@H]2CC[C@@H]1[C@@H](c1cncc(-c3cccc([18F])n3)c1)C2`, the remaining at 0.5 h in data set [24] came out at 92.5%; in [26], 12.3%. In [22], this compound yielded a half-life of 1.33 h. Besides, in data set [25], the remaining at 1 h came out at 14.9%.
Compound `Clc1ccc(C2CC3CCC2N3)cn1` (centres undefined) [EPIBATIDINE] had a negative-log Ki (pKi) in data set [15] of 10.35.
Turning to `CN1[C@@H]2CC[C@@H]1[C@@H](c1cncc(-c3cccc(F)n3)c1)C2` (stereo in doubt; (-)-6c) [listing 2 of 2 here], the pKi was 9.59 in data set [14]; 8.11 in data set [1]; 9.51 in data set [15]; 6.51 in [2]; 8.21 in data set [16]; 8.40 in data set [7]. Also, the negative-log Ki (pKi) in data set [17] was 9.02; in data set [11], 9.59. Further, the Activity entry in data set [27], in data set [29], in data set [30] and in [31] was “Non-toxic” in each case. The compound also gave a pKd in [28] of 9.27. In addition, the logD in data set [18] was determined as 0.99.
